{
  "source": "patent US10736911B2",
  "about": "“Use of a DHODH inhibitor in combination with an inhibitor of pyrimidine salvage” (The Board of Trustees of the Leland Stanford Junior …, priority 2015, dated 2020)",
  "key": {"recombinant human CMPK1": {"target": "T1, recombinant human CMPK1 (Homo sapiens, UniProt P30085)", "T1 sequence (P30085 1-196)": "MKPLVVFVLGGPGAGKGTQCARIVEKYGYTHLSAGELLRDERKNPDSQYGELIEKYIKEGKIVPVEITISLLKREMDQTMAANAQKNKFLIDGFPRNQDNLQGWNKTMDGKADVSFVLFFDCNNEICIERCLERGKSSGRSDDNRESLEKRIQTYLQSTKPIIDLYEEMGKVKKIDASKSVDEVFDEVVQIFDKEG", "experiment": "In vitro enzyme activity assay with recombinant human CMPK1 (ATP consumption)", "format": "biochemical", "conditions": "GSK983 concentrations up to 10 μM", "procedure": "In vitro enzyme activity assays with recombinant human CMPK1. The activity of recombinant human CMPK1 was measured in the presence of GSK983 using an ATP consumption assay. CMPK1 (10 nM) was added to a reaction buffer containing Tris (50 mM, pH 7.5), MgCl2 (2 mM), DTT (2 mM), ATP (100 μM), CMP (100 μM), and GSK983 (0-10 μM, from a DMSO stock solution). The final concentration of DMSO in all reaction mixtures was 2% (v/v). Enzyme activity assays were conducted at 37° C. The consumption of phosphoryl donor ATP was monitored using a Promega Kinase-Glo Luminescent Kinase Assay kit according to the manufacturer's instructions. We observed no effect of GSK983 on CMPK1 activity in vitro at GSK983 concentrations up to 10 μM."}, "K562 cells [1]": {"tested_on": "K562 cells", "experiment": "GSK983 dose response, K562 cell growth (viable cells by flow cytometry)", "format": "cell-based", "conditions": "Homo sapiens, 72 h treatment, viable cells counted by flow cytometry, read-out: IC50, inhibition of K562 cell growth", "procedure": "GSK983 dose response and growth time course in K562 cells. To determine the dose response of K562 cells to GSK983, K562 cells were seeded into 24-well plates at a density of 50,000 cells/mL and treated with GSK983 at the indicated concentration for 72 h. Following 72 h treatment, cells were harvested and the density of viable cells was determined by flow cytometry (FSC/SSC) using a BD Accuri C6 Flow Cytometer. IC50 values were calculated by fitting a 4-parameter logistic equation to the data. […] At the indicated time points, cells were harvested and the density of viable cells was determined by flow cytometry (FSC/SSC) using a BD Accuri C6 Flow Cytometer."}, "K562 cells [2]": {"tested_on": "K562 cells", "experiment": "Cell cycle analysis based on total DNA content (propidium iodide)", "parameters": "species or system human", "conditions": "24 h GSK983 treatment", "procedure": "Cell cycle analysis based on total DNA content (propidium iodide). […] Cells were treated with the indicated concentration of GSK983 for 24 h. […] Following 24 treatment, cells were harvested and pelleted (300 g, 5 min). The supernatant was removed by vacuum and the cells were washed (0.5 mL 1×PBS). Cells were resuspended in 70% EtOH (1 mL, 0° C.) with mild vortexing. Cells were fixed in 70% EtOH overnight at 4° C. The following day, fixed cells were pelleted (1900 g, 5 min), washed (0.5 mL 1×PBS), and resuspended in 200 μL of a total DNA content staining solution (1×PBS with 50 μg/mL RNase A and 10 μg/mL propidium iodide). Samples were incubated for 30 min at 37° C. and analyzed by flow cytometry using a BD Accuri C6 Flow Cytometer. Propidium iodide fluorescence was detected in FL2."}, "K562 cells [3]": {"tested_on": "K562 cells", "experiment": "Annexin V-FITC/7-AAD apoptosis assay", "format": "cell-based, human", "conditions": "72 h GSK983 treatment", "procedure": "Annexin V-FITC/7-AAD apoptosis assay. K562 cells were seeded into 24-well plates at a density of 50,000 cells/mL and treated with the indicated concentration of GSK983 for 72 h. The final concentration of DMSO in each well was <0.1%. Following 72 h GSK983 treatment, cells were harvested and pelleted (399 g, 5 min). The supernatant was removed by vacuum. Cell death by apoptosis was analyzed using a BioVision Annexin V-FITC Apoptosis Kit (catalog number K101-100). A staining solution was prepared by first diluting the provided Annexin V-FITC solution in binding buffer according to the specifications of the manufacturer. 7-AAD was added from a stock solution in DMSO (0.67 mg/mL) such that the final concentration of 7-AAD in the staining solution was 2.5 μg/mL. Cell samples were resuspended in 0.5 mL of the staining solution. Samples were incubated at room temperature for 10 min in the dark and analyzed by flow cytometry using a BD Accuri C6 Flow Cytometer. FITC fluorescence was detected in FL1 and 7-AAD fluorescence was detected in FL3."}, "recombinant human DHODH": {"target": "recombinant human DHODH (Homo sapiens, UniProt Q02127)", "sequence (Q02127 30-395)": "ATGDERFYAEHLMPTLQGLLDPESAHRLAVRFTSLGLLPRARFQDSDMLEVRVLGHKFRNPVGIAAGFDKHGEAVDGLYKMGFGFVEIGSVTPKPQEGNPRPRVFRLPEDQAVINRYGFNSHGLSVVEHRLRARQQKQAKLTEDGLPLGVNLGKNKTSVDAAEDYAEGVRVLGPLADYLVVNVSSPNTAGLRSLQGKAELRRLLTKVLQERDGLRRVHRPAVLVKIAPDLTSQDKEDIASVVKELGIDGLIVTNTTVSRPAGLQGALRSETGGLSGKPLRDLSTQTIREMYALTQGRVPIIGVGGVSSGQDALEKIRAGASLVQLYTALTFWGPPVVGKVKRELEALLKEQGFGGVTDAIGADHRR", "experiment": "In vitro enzyme activity assay with recombinant human Δ29DHODH (DCPIP coupled assay)", "format": "biochemical", "conditions": "recombinant human Δ29DHODH 10 nM, DHO 200 μM; read-out: Ki, DHODH, competitive with respect to decylubiquinone binding", "procedure": "The reduction of DCPIP can be monitored by the loss of absorbance at 610 nm (ε=21,500 M−1cm-1). Kinetic constants were calculated from measurements in which Δ29DHODH (10 nM) was either titrated with different concentrations of decylubiquinone (QD, 10-60 μM) at a fixed concentration of DHO (200 μM) or titrated with different concentrations of DHO (10-60 μM) at a fixed concentration of QD (100 μM). Enzymatic assays were conducted at 25° C. in a reaction buffer containing Tris (100 mM, pH 8.0), NaCl (150 mM), DCPIP (60 μM), glycerol (10% v/v), and Triton X-100 (0.1% v/v). The Km values for Δ29DHODH (15 μM for DHO and 14 μM for QD) were in good agreement with previously reported values for both the full-size and N-terminally truncated enzyme.\nFor each inhibitor compound, three reactions were prepared: a control reaction containing no inhibitor and two reactions containing different inhibitor concentrations. Δ29DHODH was incubated with inhibitor compounds at room temperature for 5 min. The indicated concentration of QD and DHO (200 μM) were added to the reaction mixtures and absorbance at 610 nm was monitored using a PerkinElmer Lamda 25 UV-Vis spectrophotometer. For enzyme activity assays, inhibitor compounds were prepared as 1 mM stock solutions in DMSO. A QD stock solution (10 mM) was prepared in a buffer containing Tris (100 mM, pH 8.0) and Triton X-100 (1.0% v/v). […]"}, "[4]": {"tested_on": "variety of unrelated viruses", "conditions": "Harvey et al. (2009); read-out: EC50, inhibition of replication of a variety of unrelated viruses in vitro; cited from earlier work"}, "A549 cells": {"tested_on": "A549 cells", "experiment": "A549 cell viability assay accompanying the DENV assay", "format": "cell-based, human", "conditions": "30 nM GSK983 and 1 mM deoxycytidine, 72 h"}, "VEEV": {"tested_on": "VEEV", "experiment": "microbe, parasite or virus in culture", "format": "cell-based, Venezuelan equine encephalitis virus (vaccine strain TC-83)", "conditions": "Venezuelan equine encephalitis virus, A549, read-out: IC50, inhibition of VEEV replication"}, "DENV [5]": {"tested_on": "DENV", "experiment": "DENV antiviral assay (DENV-Luc replication in A549 cells)", "format": "cell-based, dengue virus serotype 2 strain 16681", "conditions": "for IC50: Dengue virus, A549, 72 h"}, "DENV [6]": {"tested_on": "DENV", "format": "cell-based, dengue virus serotype 2 strain 16681", "conditions": "48 nM GSK983, 20 μM uridine, UCK2 shRNA derivative"}, "DENV [7]": {"tested_on": "DENV", "experiment": "DENV antiviral assay for combination of GSK983 and DP", "format": "cell-based, dengue virus serotype 2 strain 16681", "conditions": "Dengue virus"}, "[8]": {"tested_on": "uridine salvage in K562 and A549 cells", "experiment": "Uridine salvage inhibition by 5-ethynyl-uridine (5-EU) incorporation and click chemistry", "format": "cell-based", "conditions": "Homo sapiens"}, "MV4-11 cells": {"tested_on": "MV4-11 cells", "experiment": "MV4-11 cell killing, DP with GSK983 in uridine supplemented media", "format": "cell-based", "conditions": "Homo sapiens, 158 nM GSK983, 20 μM uridine supplemented media"}, "K562 cells [9]": {"tested_on": "K562 cells", "experiment": "K562 cell count, DP with GSK983 in uridine supplemented media", "format": "cell-based", "conditions": "Homo sapiens, 50 nM GSK983, 20 μM uridine supplemented media, 72 h"}, "[10]": {"tested_on": "A549 lung cancer cell line", "experiment": "A549 cell count, DP with GSK983 in uridine supplemented media", "format": "cell-based", "conditions": "Homo sapiens, 158 nM GSK983, 20 μM uridine supplemented media, 72 h, read-out: IC50(DP), A549 viable cell count"}, "[11]": {"tested_on": "chronic myelogenous leukemia (CML)", "conditions": "in vivo; cited from earlier work"}},
  "note": "Read-outs that look alike come from different tables or passages of the source.",
  "data": [
    {"smiles": "O=C(N[C@@H]1CCCc2c1[nH]c1ccc(Cl)cc21)c1ccccn1", "note": "[GSK983, (R)—N-(6-Chloro-2,3,4,9-tetrahydro-1H-carbazol-1-yl)picolinamide]", "values": [
      {"measurement": "Effect on in vitro CMPK1 activity", "setting": "recombinant human CMPK1", "value": "no effect"},
      {"measurement": "IC50", "setting": "K562 cells [1]", "value": 21, "unit": "nM"},
      {"measurement": "Cell cycle effect", "setting": "K562 cells [2]", "value": "accumulation of K562 cells in S phase"},
      {"measurement": "Cell death by apoptosis", "setting": "K562 cells [3]", "value": "dose dependent increase in K562 cell death by apoptosis"},
      {"measurement": "Ki", "setting": "recombinant human DHODH", "value": 403, "unit": "nM"},
      {"measurement": "EC50", "setting": "[4]", "value": "5 to 20", "unit": "nM"},
      {"measurement": "Effect on A549 cell growth", "setting": "A549 cells", "value": "minimal effect"},
      {"measurement": "IC50", "setting": "VEEV", "value": 12.8, "unit": "nM"},
      {"measurement": "Reduction in DENV replication", "setting": "DENV [5]; 30 nM GSK983 and 1 mM deoxycytidine, A549 cells", "value": "~90", "unit": "%"},
      {"measurement": "Antiviral activity against DENV with uridine supplementation", "setting": "DENV [5]; A549 cells, 1 mM uridine", "value": "completely abolished the antiviral activity"},
      {"measurement": "IC50", "setting": "DENV [5]; read-out: IC50, inhibition of DENV replication", "value": 13.3, "unit": "nM"},
      {"measurement": "IC50", "setting": "DENV [5]; read-out: IC50, inhibition of DENV replication with exogenous deoxycytidine", "value": 13.5, "unit": "nM"},
      {"measurement": "DENV replication in A549 UCK2 shRNA cells", "setting": "DENV [6]", "value": "inhibited viral replication in the latter cell-line"}
    ]},
    {"smiles": "OCCN(CCO)c1nc(N2CCCCC2)c2nc(N(CCO)CCO)nc(N3CCCCC3)c2n1", "note": "[DP, dipyridamole]", "values": [
      {"measurement": "EC50", "setting": "DENV [7]; A549, 48 h, read-out: EC50 of DP, DENV luciferase signal, 2 days post-infection", "value": 135, "unit": "nM"},
      {"measurement": "EC50", "setting": "DENV [7]; A549, 72 h, read-out: EC50 of DP, DENV luciferase signal, 3 days post-infection", "value": 164, "unit": "nM"},
      {"measurement": "IC50", "setting": "[8]", "value": 200, "unit": "nM"},
      {"measurement": "IC50", "setting": "MV4-11 cells", "value": 110, "unit": "nM"},
      {"measurement": "IC50", "setting": "K562 cells [9]", "value": 110, "unit": "nM"},
      {"measurement": "IC50", "setting": "[10]", "value": 230, "unit": "nM"}
    ]},
    {"smiles": "Cc1c(-c2ccc(-c3ccccc3F)cc2)nc2ccc(F)cc2c1C(=O)O", "note": "[brequinar]", "values": [
      {"measurement": "Efficacy towards CML in mouse models", "setting": "[11]", "value": "effective"}
    ]}
  ]
}
